Source: patent US20050197338A1, “Substituted pyrazole urea compounds for the treatment of inflammation” (priority 2003, published 2005)

Target: T1, human IKK-2 (rhIKK-2 homodimer) (Homo sapiens, UniProt O14920)
T1 construct: FLAG (DYKDDDDKD) (C); made in house; host or cells: insect cells (baculovirus, pFastBac)
T1 sequence (O14920 1-756): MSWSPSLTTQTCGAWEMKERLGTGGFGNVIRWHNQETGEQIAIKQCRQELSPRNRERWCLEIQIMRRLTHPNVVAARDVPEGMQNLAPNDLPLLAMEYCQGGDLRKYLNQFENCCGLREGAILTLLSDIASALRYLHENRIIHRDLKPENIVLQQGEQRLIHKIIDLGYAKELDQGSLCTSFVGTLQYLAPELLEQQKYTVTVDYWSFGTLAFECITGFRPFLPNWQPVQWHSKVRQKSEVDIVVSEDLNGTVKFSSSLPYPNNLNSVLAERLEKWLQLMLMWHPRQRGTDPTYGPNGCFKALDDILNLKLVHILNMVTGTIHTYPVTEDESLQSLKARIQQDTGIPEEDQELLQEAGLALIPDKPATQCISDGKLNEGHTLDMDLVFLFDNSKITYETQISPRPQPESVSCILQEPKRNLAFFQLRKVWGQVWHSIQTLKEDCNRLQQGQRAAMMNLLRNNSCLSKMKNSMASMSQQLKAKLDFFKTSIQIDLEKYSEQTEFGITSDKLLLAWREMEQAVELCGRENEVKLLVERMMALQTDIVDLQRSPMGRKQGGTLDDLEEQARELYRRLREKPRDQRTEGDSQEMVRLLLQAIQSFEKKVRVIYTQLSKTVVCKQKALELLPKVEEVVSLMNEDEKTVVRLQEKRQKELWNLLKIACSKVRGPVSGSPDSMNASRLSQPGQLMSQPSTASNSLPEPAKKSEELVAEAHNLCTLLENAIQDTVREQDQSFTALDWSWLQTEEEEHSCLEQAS
Assay: IKK-2 Resin Enzyme Assay (Human IKK-2 Enzyme Assay)
Type: biochemical
Details: human IKK-2, resin enzyme assay; read-out: IC50 (μM) hIKK-2
Procedure, shortened: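 C-terminally FLAG-tagged human IKK-2 homodimer, baculovirus-expressed in insect cells and anti-FLAG purified. Reaction mix: 5 μM biotinylated IκBα peptide (Ser32/Ser36 region), 1 μM ATP with [γ-33P]ATP, 2 mM MgCl2, 2 mM MnCl2, 10 mM NaF, 1 mM DTT, 25 mM HEPES pH 7.6. Incubated 30 min at 25 °C; IC50 derived.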

IC50 [µM]	Compound
4.88	CCOc1cc(-n2cc(NC(N)=O)c(C(N)=O)n2)ccc1-c1cccc(OCC#N)c1 [Example 231, 4-[(aminocarbonyl)amino]-1-[3′-(cyanomethoxy)-2-ethoxy-1,1′-biphenyl-4-yl]-1H-pyrazole-3-carboxamide]
10.3	CCOc1cc(-n2cc(NC(N)=O)c(C(N)=O)n2)ccc1-c1ccccc1O [Example 232, 4-[(aminocarbonyl)amino]-1-(2-ethoxy-2′-hydroxy-1,1′-biphenyl-4-yl)-1H-pyrazole-3-carboxamide]
0.375	NC(=O)Nc1cn(-c2ccc(-c3cccc(O)c3)c(C(F)(F)F)c2)nc1C(N)=O [Example 233, 4-[(aminocarbonyl)amino]-1-[3′-hydroxy-2-(trifluoromethyl)-1,1′-biphenyl-4-yl]-1H-pyrazole-3-carboxamide]
1.71	NC(=O)Nc1cn(-c2ccc(-c3ccccc3O)c(C(F)(F)F)c2)nc1C(N)=O [Example 234, 4-[(aminocarbonyl)amino]-1-[2′-hydroxy-2-(trifluoromethyl)-1,1′-biphenyl-4-yl]-1H-pyrazole-3-carboxamide]
13.2	Cc1cc(-c2ccccc2O)ccc1-n1cc(NC(N)=O)c(C(N)=O)n1 [Example 235, 4-[(aminocarbonyl)amino]-1-(2′-hydroxy-3-methyl-1,1′-biphenyl-4-yl)-1H-pyrazole-3-carboxamide]
3.05	CCOc1cc(-n2cc(NC(N)=O)c(C(N)=O)n2)ccc1-c1ccccc1OCC#N [Example 236, 4-[(aminocarbonyl)amino]-1-[2′-(cyanomethoxy)-2-ethoxy-1,1′-biphenyl-4-yl]-1H-pyrazole-3-carboxamide]
3.9	N#CCOc1cccc(-c2ccc(-n3cc(NC(N)=O)c(C(N)=O)n3)cc2C(F)(F)F)c1 [Example 237, 4-[(aminocarbonyl)amino]-1-[3′-(cyanomethoxy)-2-(trifluoromethyl)-1,1′-biphenyl-4-yl]-1H-pyrazole-3-carboxamide]
1.11	N#CCOc1ccccc1-c1ccc(-n2cc(NC(N)=O)c(C(N)=O)n2)cc1C(F)(F)F [Example 238, 4-[(aminocarbonyl)amino]-1-[2′-(cyanomethoxy)-2-(trifluoromethyl)-1,1′-biphenyl-4-yl]-1H-pyrazole-3-carboxamide]
0.161	Cc1cc(-n2cc(NC(N)=O)c(C(N)=O)n2)ccc1-c1cccc(O)c1 [Example 239, 1-(3′-hydroxy-2-methyl-biphenyl-4-yl)-4-ureido-1H-pyrazole-3-carboxylic acid amide]
2.02	Cc1cc(-n2cc(NC(N)=O)c(C(N)=O)n2)ccc1-c1ccccc1O [Example 240, 1-(2′-Hydroxy-2-methyl-biphenyl-4-yl)-4-ureido-1H-pyrazole-3-carboxylic acid amide]
1.68	Cc1cc(-n2cc(NC(N)=O)c(C(N)=O)n2)ccc1-c1ccc(F)cc1O [Example 241, 1-(4′-Fluoro-2′-hydroxy-2-methyl-biphenyl-4-yl)-4-ureido-1H-pyrazole-3-carboxylic acid amide]
1.35	Cc1cc(-n2cc(NC(N)=O)c(C(N)=O)n2)ccc1-c1cc(F)ccc1O [Example 242, 1-(5′-Fluoro-2′-hydroxy-2-methyl-biphenyl-4-yl)-4-ureido-1H-pyrazole-3-carboxylic acid amide]
8.11	Cc1cc(-n2cc(NC(N)=O)c(C(N)=O)n2)ccc1-c1cccc(OCC#N)c1 [Example 243, 1-(3′-Cyanomethoxy-2-methyl-biphenyl-4-yl)-4-ureido-1H-pyrazole-3-carboxylic acid amide]
0.866	Cc1cc(-n2cc(NC(N)=O)c(C(N)=O)n2)ccc1-c1ccc(F)cc1OCC#N [Example 244, 1-(2′-Cyanomethoxy-4′-fluoro-2-methyl-biphenyl-4-yl)-4-ureido-1H-pyrazole-3-carboxylic acid amide]
5.51	CNC(=O)Nc1cn(-c2ccc(I)c(C)c2)nc1C(N)=O [Example 245, 1-(4-Iodo-3-methyl-phenyl)-4-(3-methyl-ureido)-1H-pyrazole-3-carboxylic acid amide]

The next lines start with the compound.

Compound	IC50 [µM]
NC(=O)Nc1cn(-c2ccc(SC3CCCC3)cc2)nc1C(N)=O [Example 207, 1-(3-carbamoyl-1-(4-(cyclopentylthio)phenyl)-1H-pyrazol-4-yl)urea]	1.32
NC(=O)Nc1cn(-c2ccc(Sc3ccccc3O)cc2)nc1C(N)=O [Example 208, 1-(1-(4-(2-hydroxyphenylthio)phenyl)-3-carbamoyl-1H-pyrazol-4-yl)urea]	0.328
NC(=O)Nc1cn(-c2ccc(Sc3ccccc3F)cc2F)nc1C(N)=O [Example 211, 1-(1-(4-(2-fluorophenylthio)-2-fluorophenyl)-3-carbamoyl-1H-pyrazol-4-yl)urea]	10.5
NC(=O)Nc1cn(-c2ccc(F)cc2)nc1C(N)=O [Example 212, 4-[(aminocarbonyl)amino]-1-(4-fluorophenyl)-1H-pyrazole-3-carboxamide]	0.844
NC(=O)Nc1cn(-c2ccc3c(c2)OCO3)nc1C(N)=O [Example 213, 4-[(aminocarbonyl)amino]-1-(1,3-benzodioxol-5-yl)-1H-pyrazole-3-carboxamide]	3.91
NC(=O)Nc1cn(-c2ccc(Cl)cc2)nc1C(N)=O [Example 214, 4-[(aminocarbonyl)amino]-1-(4-chlorophenyl)-1H-pyrazole-3-carboxamide]	0.382
CC(C)c1ccc(-n2cc(NC(N)=O)c(C(N)=O)n2)cc1 [Example 216, 4-[(aminocarbonyl)amino]-1-(4-isopropylphenyl)-1H-pyrazole-3-carboxamide]	0.159
NC(=O)Nc1cn(-c2ccc(F)c(F)c2)nc1C(N)=O [Example 218, 4-[(aminocarbonyl)amino]-1-(3,4-difluorophenyl)-1H-pyrazole-3-carboxamide]	1.31
NC(=O)Nc1cn(-c2ccc3ccccc3c2)nc1C(N)=O [Example 219, 4-[(aminocarbonyl)amino]-1-(2-naphthyl)-1H-pyrazole-3-carboxamide]	0.175
N#CCOc1cccc(-c2ccc(-n3cc(NC(N)=O)c(C(N)=O)n3)cc2Cl)c1 [Example 220, 4-[(aminocarbonyl)amino]-1-[2-chloro-3′-(cyanomethoxy)-1,1′-biphenyl-4-yl]-1H-pyrazole-3-carboxamide]	1.57
NC(=O)Nc1cn(-c2ccc(Sc3ccc(F)cc3)c(Cl)c2)nc1C(N)=O [Example 221, 4-[(aminocarbonyl)amino]-1-{3-chloro-4-[(4-fluorophenyl)thio]phenyl}-1H-pyrazole-3-carboxamide]	2.6
NC(=O)Nc1cn(-c2ccc(S(=O)(=O)c3ccc(F)cc3)c(Cl)c2)nc1C(N)=O [Example 222, 4-[(aminocarbonyl)amino]-1-{3-chloro-4-[(4-fluorophenyl)sulfonyl]phenyl}-1H-pyrazole-3-carboxamide]	> 20
NC(=O)Nc1cn(-c2ccc(-c3ccccc3O)c(Cl)c2)nc1C(N)=O [Example 223, 4-[(aminocarbonyl)amino]-1-(2-chloro-2′-hydroxy-1,1′-biphenyl-4-yl)-1H-pyrazole-3-carboxamide]	1.15
N#CCOc1ccccc1-c1ccc(-n2cc(NC(N)=O)c(C(N)=O)n2)cc1Cl [Example 224, 4-[(aminocarbonyl)amino]-1-[2-chloro-2′-(cyanomethoxy)-1,1′-biphenyl-4-yl]-1H-pyrazole-3-carboxamide]	0.327
NC(=O)Nc1cn(-c2ccc(-c3cccc(O)c3)c(F)c2)nc1C(N)=O [Example 226, 4-[(aminocarbonyl)amino]-1-(2-fluoro-3′-hydroxy-1,1′-biphenyl-4-yl)-1H-pyrazole-3-carboxamide]	1.06
N#CCOc1cccc(-c2ccc(-n3cc(NC(N)=O)c(C(N)=O)n3)cc2F)c1 [Example 227, 4-[(aminocarbonyl)amino]-1-[3′-(cyanomethoxy)-2-fluoro-1,1′-biphenyl-4-yl]-1H-pyrazole-3-carboxamide]	1.53
Cc1cc(Sc2ccc(F)cc2)ccc1-n1cc(NC(N)=O)c(C(N)=O)n1 [Example 228, 4-[(aminocarbonyl)amino]-1-{4-[(4-fluorophenyl)thio]-2-methylphenyl}-1H-pyrazole-3-carboxamide]	> 20
Cc1cc(S(=O)(=O)c2ccc(F)cc2)ccc1-n1cc(NC(N)=O)c(C(N)=O)n1 [Example 229, 4-[(aminocarbonyl)amino]-1-{4-[(4-fluorophenyl)sulfonyl]-2-methylphenyl}-1H-pyrazole-3-carboxamide]	2.19
CCOc1cc(-n2cc(NC(N)=O)c(C(N)=O)n2)ccc1-c1cccc(O)c1 [Example 230, 4-[(aminocarbonyl)amino]-1-(2-ethoxy-3′-hydroxy-1,1′-biphenyl-4-yl)-1H-pyrazole-3-carboxamide]	2.02
